Drawing on DBAASP, this text covers MIC for seven molecules.

Common to all, as to assay: ≥ marks a high value that may be exact or a test limit, other limits are often not marked, values filed in µg/mL are converted to µM
Assay [1] concerns Pseudomonas aeruginosa H1001.
Assay [2] has as its system Escherichia coli BL21AI.
Assay [3] has as its system Micrococcus luteus ATCC 10240.
Assay [4] deals with Staphylococcus epidermidis ATCC 12228.
In assay [5] the test system is Enterococcus faecalis ATCC 29212.
Assay [6] relates to Staphylococcus aureus ATCC 29213.
Assay [7] relates to Escherichia coli ATCC 25922.
Assay [8] relates to Salmonella enterica subsp. enterica serovar Typhimurium C77-31.
In assay [9] the test system is Salmonella enterica subsp. enterica serovar Pullorum C79-13.

≈ marks a conversion by molar mass, not a printed value.

The MIC is the least concentration at which growth counts as inhibited. Low values mean inhibition by little substance, high ones a need for much substance.

In assay [1], `CC[C@H](C)[C@H](NC(=O)[C@@H](N)Cc1ccccc1)C(=O)N[C@@H](CCCN=C(N)N)C(=O)N[C@@H](Cc1c[nH]c2ccccc12)C(=O)N[C@@H](CCCN=C(N)N)C(=O)N[C@@H](Cc1ccccc1)C(=O)N[C@@H](CCCN=C(N)N)C(=O)N[C@@H](Cc1c[nH]c2ccccc12)C(=O)N[C@@H](Cc1c[nH]c2ccccc12)C(=O)N[C@@H](CCCN=C(N)N)C(=O)N[C@@H](Cc1c[nH]c2ccccc12)C(=O)N[C@@H](CCCN=C(N)N)C(=O)N[C@@H](CCCN=C(N)N)C(N)=O` [FIRWRFRWWRWRR] gave an MIC of 2.85 µM (≈ 6 µg/mL).
Regarding `CC[C@H](C)[C@H](NC(=O)[C@H](Cc1ccc(O)cc1)NC(=O)[C@@H](NC(=O)[C@@H]1CCCN1C(=O)[C@H](CCCN=C(N)N)NC(=O)[C@H](CC(N)=O)NC(=O)[C@H](CC(N)=O)NC(=O)CN)C(C)C)C(=O)N[C@@H](C)C(=O)N[C@@H](CCC(N)=O)C(=O)N1CCC[C@H]1C(=O)N[C@@H](CCCN=C(N)N)C(=O)N1CCC[C@H]1C(=O)N1CCC[C@H]1C(=O)N[C@@H](Cc1cnc[nH]1)C(=O)N1CCC[C@H]1C(=O)N[C@@H](C)C(=O)N[C@@H](CC(C)C)C(N)=O` [GNNRPVYIAQPRPPHPAL], the MIC in [2] and in [3] was not below 62.6 µM each time.
As to `CC[C@H](C)[C@H](NC(=O)[C@H](CCCCN)NC(=O)[C@H](Cc1c[nH]c2ccccc12)NC(=O)[C@H](CCCCN)NC(=O)[C@@H](N)CCCCN)C(=O)N[C@H](C(=O)N[C@H](C(=O)N[C@H](C(=O)N[C@@H](CCCCN)C(=O)N[C@@H](Cc1c[nH]c2ccccc12)C(=O)N[C@@H](CCCCN)C(=O)N[C@@H](CCCCN)C(N)=O)[C@@H](C)CC)C(C)C)C(C)C` [KKWKIVVIKWKK], the MIC in assay [1] amounted to 2.53 µM (≈ 4 µg/mL).
For the molecule `NCCCC[C@H](NC(=O)[C@H](CCCCN)NC(=O)[C@H](Cc1c[nH]c2ccccc12)NC(=O)[C@H](CCCCN)NC(=O)[C@H](Cc1c[nH]c2ccccc12)NC(=O)[C@H](Cc1c[nH]c2ccccc12)NC(=O)[C@@H](N)CCCCN)C(N)=O` [KWWKWKK], in [1], the MIC is not below 229 µM.
Turning to `CC[C@H](C)[C@H](NC(=O)[C@H](CCCN=C(N)N)NC(=O)[C@H](CCCN=C(N)N)NC(=O)[C@@H]1CCCN1C(=O)[C@@H]1CCCN1C(=O)[C@H](CCCN=C(N)N)NC(=O)[C@@H]1CCCN1C(=O)[C@H](CCCN=C(N)N)NC(=O)[C@@H]1CCCN1C(=O)[C@H](CC(C)C)NC(=O)[C@H](Cc1ccc(O)cc1)NC(=O)[C@@H]1CCCN1C(=O)[C@@H]1CCCN1C(=O)[C@H](CCCCN)NC(=O)[C@H](CC(=O)O)NC(=O)[C@@H](N)C(C)C)C(=O)N[C@@H](Cc1ccc(O)cc1)C(=O)N[C@@H](CC(N)=O)C(=O)N[C@@H](CCCN=C(N)N)C(=O)N[C@@H](CC(N)=O)C(=O)O` [VDKPPYLPRPRPPRRIYNRN], the values for the MIC in assay [2] and in assay [3] were 3.19 µM (≈ 8 µg/mL) and 6.39 µM (≈ 16 µg/mL), respectively.
The molecule `CC[C@H](C)[C@H](NC(=O)[C@H](CCCN=C(N)N)NC(=O)[C@H](CCCN=C(N)N)NC(=O)[C@@H]1CCCN1C(=O)[C@H](Cc1c[nH]c2ccccc12)NC(=O)[C@H](CCCN=C(N)N)NC(=O)[C@@H]1CCCN1C(=O)[C@H](CCCN=C(N)N)NC(=O)[C@@H]1CCCN1C(=O)[C@H](CC(C)C)NC(=O)[C@H](Cc1ccc(O)cc1)NC(=O)[C@@H]1CCCN1C(=O)[C@@H]1CCCN1C(=O)[C@H](CCCCN)NC(=O)[C@H](CC(=O)O)NC(=O)[C@@H](N)C(C)C)C(=O)N[C@@H](Cc1ccc(O)cc1)C(=O)N[C@@H](CC(N)=O)C(=O)N[C@@H](CCCN=C(N)N)C(=O)NCC(=O)O` [VDKPPYLPRPRWPRRIYNRG] displayed an MIC in assay [1] of 0.0591 µM (≈ 0.15 µg/mL).
As for `NCCCC[C@H](NC(=O)CNC(=O)[C@H](CC(N)=O)NC(=O)[C@H](CCCCN)NC(=O)[C@H](Cc1c[nH]c2ccccc12)NC(=O)[C@H](CCCCN)NC(=O)[C@H](Cc1c[nH]c2ccccc12)NC(=O)[C@H](CCCCN)NC(=O)[C@@H](N)Cc1c[nH]c2ccccc12)C(=O)N[C@@H](Cc1c[nH]c2ccccc12)C(=O)N[C@@H](CCCCN)C(=O)N[C@@H](Cc1c[nH]c2ccccc12)C(=O)N[C@@H](CCCCN)C(=O)N[C@@H](Cc1c[nH]c2ccccc12)C(=O)O` [WKWKWKNGKWKWKW], the MIC in assay [4] was 32 µM (≈ 66.4 µg/mL); in assay [5] it was 16 µM (≈ 33.2 µg/mL); in [6] it was 4 µM (≈ 8.3 µg/mL); in assay [7], 2 µM (≈ 4.15 µg/mL); in [8], 8 µM (≈ 16.6 µg/mL); in assay [9], 4 µM (≈ 8.3 µg/mL).
